Measured values taken from article PMC12914960, “Repurposing a detrimental antibody epitope as targeted therapeutics for sepsis and rheumatoid arthritis” (Military Medical Research, 2026).
Several values for one entry are separate records, joined by “and”; a condition that tells them apart may be missing. Identical values can stand only once. Where a SMILES comes first, the peptide text is derived from it.

How the values were obtained:
[1] = test system: CAIA in BALB/c mice; experiment: Arthritis severity score, collagen antibody-induced arthritis (CAIA); format: in vivo, mouse
Procedure: The CAIA model was established in BALB/c mice (8–10 weeks old) as described previously. On Day 0, the mice received an i.p. injection of 2 mg of anti-collagen II mAb cocktail (α-CII, Chondrex, Inc., Redmond, WA, USA). On Day 3, the mice received an i.p. injection of 30 µg of LPS [Escherichia coli (E. coli) O111:B4; Sigma-Aldrich, St. Louis, MO, USA] to activate inflammation and synchronize arthritis onset. The mice were randomized to the control vehicle (n = 5 or n = 7–10) or experimental groups (n = 5 or n = 7–10). Therapeutic agents [P2-1 peptide (1.0 or 2.0 mg/kg) or pCTS-L-neutralizing mAb2 (1.0, 2.0, or 4.0 mg/kg)] were administered i.p. daily, either prophylactically from–Day 2 or therapeutically from Day 6 post-α-CII challenge. Arthritis severity was scored daily via a clinical scoring system [0–4 per paw: 0 = normal; 1 = mild redness and swelling in a single joint type (ankle, wrist, or individual digit); 2 = moderate redness and swelling affecting two joint types; 3 = severe redness and swelling across all 3 joint types; 4 = maximal redness and swelling of the entire paw that obscured the joint definition].
On Day 0, the mice recei ved an i.p. injection of 2 mg of anti-collagen II m Ab cocktail (α-CII, Chondrex, Inc., Redmond, WA). […]

[2] = test system: human PBMCs; experiment: HMGB1-induced cytokine/chemokine secretion by PBMCs, cytokine antibody arrays; format: cell-based; settings: P2-1 5.0 or 10.0 µg/ml, 16 h
Procedure: Human blood was purchased from the New York Blood Center (Long Island City, NY, USA), and PBMCs were isolated via density gradient centrifugation through Ficoll (Ficoll-Paque PLUS) as previously described. PBMCs were cultured in RPMI-1640 supplemented with 10% human serum, 2 mmol/L L-glutamine, 100 U/ml penicillin, and 100 µg/ml streptomycin (all from Invitrogen, Carlsbad, CA, USA). For experiments, PBMCs were stimulated with recombinant HMGB1 (0.5 or 2.0 µg/ml) for 16 h, either alone or in combination with P2-1 at 5.0 or 10.0 µg/ml. Cell-free supernatants were collected for analysis of cytokine/chemokine levels via cytokine antibody arrays, or pCTS-L levels via Western blotting analysis as previously described.
The levels of cytokines and chemokines in mouse serum and joint tissue lysates, or human PBMC culture supernatants, were determined via murine or human cytokine antibody arrays (e.g., Cat. #AAM-CYM-3–8 or Cat. #AAH-CYT-3–8, RayBiotech Inc., Norcross, GA, USA) as previously described. For the sepsis model, blood samples were collected from the mice (n = 4) at 24 h post-CLP. […] Arrays were performed according to the manufacturer’s protocol, followed by chemiluminescent detection and densitometric quantification as previously described. […]

[3] = test system: CAIA-induced joint cytokines and chemokines; experiment: Cytokine antibody arrays of joint tissue of CAIA mice; format: in vivo, mouse; parameters: VCAM1 / sTNFRI / sTNFRII / MIP-1gamma / MIP2 / P-selectin: unit not given here
Procedure: The levels of cytokines and chemokines in mouse serum and joint tissue lysates, or human PBMC culture supernatants, were determined via murine or human cytokine antibody arrays (e.g., Cat. #AAM-CYM-3–8 or Cat. #AAH-CYT-3–8, RayBiotech Inc., Norcross, GA, USA) as previously described. For the sepsis model, blood samples were collected from the mice (n = 4) at 24 h post-CLP. For the CAIA model, soft tissues from the hindpaw and ankle joints were carefully harvested from normal (n = 2) and CAIA (n = 4) mice using a previously established protocol. Briefly, 0.5 g of fresh soft tissue was cut into 3 mm pieces and mixed with 400 µl of a hypertonic solution (500 ml of PBS with 4.5 g of NaCl and 2 × protease inhibitor cocktail) in a 10 ml syringe. Mechanical extrusion, involving 30 rapid back-and-forth movements of the plunger, was then performed. The expelled extracellular fluid was collected, immediately aliquoted, and stored at −20 °C until analysis. Cell-conditioned medium was collected from PBMC cultures after 16 h of stimulation. Arrays were performed according to the manufacturer’s protocol, followed by chemiluminescent detection and densitometric quantification as previously described.
Fig. S5 Representative cytokine antibody arrays depicting the effect of P2- 1 on collagen antibody- induced
arthritis (CAIA)- induced joint inflammation. Representative images from cyt okine antibody arrays of j oint
tissue lysates from 4 vehicle-treated CAIA mice and 4 P2-1- treated CAIA mice (harvested on Day 10). […]

[4] = CAIA + P2-1, joint tissue Day 10, individual values, P = 0.00077753

`CCCC[C@H](NC(=O)[C@H](Cc1c[nH]cn1)NC(=O)[C@@H](NC(=O)[C@H](CCCCN)NC(=O)[C@@H](N)[C@@H](C)O)C(C)C)C(=O)N[C@@H](CCCCN)C(=O)N[C@@H](CO)C(=O)N[C@@H](Cc1ccccc1)C(=O)N[C@@H](CC(C)C)C(=O)N[C@@H](C)C(=O)N[C@@H](Cc1ccccc1)C(=O)N[C@@H](CCC(N)=O)C(=O)N[C@H](C(=O)N[C@@H](CCCCN)C(=O)N[C@H](C(=O)O)[C@@H](C)O)[C@@H](C)O` [P2-1] (HELM PEPTIDE1{T.K.V.H.[Nle].K.S.F.L.A.F.Q.T.K.T}$$$$V2.0; N-terminus and C-terminus assumed) was tested, and the “arthritis severity, in words” value ([1]; P2-1 1.0 or 2.0 mg/kg i.p. daily from Day 6 (therapeutic)) was “dose-dependently and significantly attenuated CAIA-induced arthritis severity”, the “arthritis severity, in words” value ([1]; P2-1 prophylactic, from Day -2, significant by Day 7) was “significantly reduced arthritis severity” and the “HMGB1-induced cytokine/chemokine secretion, in words” value [2] was “did not broadly inhibit the secretion of these HMGB1-induced cytokines and chemokines”. The VCAM1 ([3]; CAIA + P2-1, joint tissue Day 10, individual values, P = 0.0007706) was 4 and 4.5 and 8.2 and 10.3 and 3.3 and 1.2 and 0.7, the sTNFRI [3, 4] was 23.4 and 20.4 and 17.4 and 17 and 24.9 and 22.3 and 40 and 36.8 and the sTNFRII [3, 4] was 12.4 and 11.7 and 6.5 and 5.7 and 3.2 and 2.8 and 5.8 and 5.9. For the same molecule, the MIP-1gamma ([3]; CAIA + P2-1, joint tissue Day 10, individual values, P = 0.00163) was 39.6 and 44.2 and 29 and 33.7 and 41.8 and 44.8 and 49.9 and 50.4, the MIP2 ([3]; CAIA + P2-1, joint tissue Day 10, individual values, P = 0.02067) was 2.5 and 2.7 and 4.3 and 4.8 and 5.9 and 7.2 and 5.1 and 5.2 and the P-selectin ([3]; CAIA + P2-1, joint tissue Day 10, individual values, P = 0.04584) was 3.6 and 4 and 3.4 and 5.3 and 5.6 and 7.5 and 8. For the same molecule, the “joint inflammation, in words” value ([3]; P2-1 prophylactic) was “significantly reducing joint levels of sTNFRI and sTNFRII, the chemokine MIP-1γ/CCL9, and VCAM-1” and the “joint tissue inflammation, in words” value ([3]; P2-1 therapeutic, sTNFRI, sTNFRII, MIP-1γ/CCL9, VCAM-1, Day 10) was “significantly reduced CAIA-induced joint tissue inflammation”.
